From patent publication US20040234592A1, “Dermatological formulations” (priority 2001, published 2004)

Key:
[1] = system: atrophy induced by topical betamethasone; assay: Betamethasone-induced skin atrophy in mice, concomitant TriAc; format: in vivo; settings: concomitant treatment with topical betamethasone
[2] = system: genes important for skin structure and function; settings: established models of human skin; cited from earlier work

O=C(O)Cc1cc(I)c(Oc2ccc(O)c(I)c2)c(I)c1 [TriAc, [4-(4-Hydroxy-3-iodophenoxy)-3,5-diiodophenyl]acetic acid]
atrophy (reduction of total collagen and of cross-linking between collagen bundles in the dermis) [1]: totally prevents the atrophy
expression of genes important for skin structure and function [2]: regulate expression of several genes
